Data reported in ChEMBL document CHEMBL1268906, “Discovery of a potent and selective Bcl-2 inhibitor using SAR by NMR” (Bioorg Med Chem Lett, 2010).

Experiments:
[1] = target: T1, Apoptosis regulator Bcl-2 (Homo sapiens, UniProt P10415); experiment: Inhibition of Bcl-2 by fluorescence polarization assay
[2] = target: T1, Apoptosis regulator Bcl-2; experiment: Binding affinity to Bcl-2 by NMR titration assay
Bcl-2-like protein 1 = Bcl-2-like protein 1 (Homo sapiens, UniProt Q07817); experiment: Binding affinity to Bcl-XL by NMR titration assay
Chain of Bcl-2-like protein 1 (Q07817 whole entry): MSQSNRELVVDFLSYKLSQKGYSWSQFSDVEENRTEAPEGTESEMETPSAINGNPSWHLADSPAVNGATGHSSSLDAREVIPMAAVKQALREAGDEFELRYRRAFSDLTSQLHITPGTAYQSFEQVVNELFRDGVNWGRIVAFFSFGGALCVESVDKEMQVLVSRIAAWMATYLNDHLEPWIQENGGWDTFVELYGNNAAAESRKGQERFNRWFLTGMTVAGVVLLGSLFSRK

[3] = target: T1, Apoptosis regulator Bcl-2; experiment: Binding affinity to Bcl-2 by NMR titration assay in presence of 500 uM 1,1-bis(4-chlorophenyl)-3-(dimethylamino)propan-1-ol
[4] = Selectivity ratio of Kd for Bcl-XL to Kd for Bcl-2

T1 sequence (P10415 whole entry): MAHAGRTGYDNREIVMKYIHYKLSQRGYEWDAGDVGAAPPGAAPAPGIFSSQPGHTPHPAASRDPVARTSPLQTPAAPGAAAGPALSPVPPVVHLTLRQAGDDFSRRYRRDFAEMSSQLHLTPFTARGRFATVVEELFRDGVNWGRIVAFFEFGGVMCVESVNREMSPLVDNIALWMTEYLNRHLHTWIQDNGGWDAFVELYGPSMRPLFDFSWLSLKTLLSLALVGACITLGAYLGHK

Row | Structure (SMILES) | Ki [1] | Kd [2] | other results
1 | O=C(O)c1ccc(-c2ccc(OCCc3cc(C(O)(CCN4CCOCC4)c4ccc(Cl)cc4)ccc3Cl)cc2)cc1 (stereo not drawn) | 0.22 µM | – | –
2 | CN(C)CCCC(O)(c1ccccc1)c1ccc(OCc2cccc(-c3ccc(C(=O)O)cc3)c2)cc1 (stereo not drawn) | 5.8 µM | – | –
3 | CN(C)CCCC(O)(c1ccccc1)c1cccc(OCCc2cccc(-c3ccc(C(=O)O)cc3)c2)c1 (stereo not drawn) | 5 µM | – | –
4 | CC(C)(C)c1ccc(C(O)(CCN2CCOCC2)c2ccc(Cl)c(CCOc3ccc(-c4ccc(C(=O)O)cc4)cc3)c2)cc1 (stereo not drawn) | 0.11 µM | – | –
5 | CN(C)CCCC(O)(c1ccccc1)c1ccccc1 | – | 200 µM | Kd (Bcl-2-like protein 1): 5000 µM
6 | CN(C)CCCC(O)(c1ccccc1)c1cccc(OCc2ccc(-c3ccc(C(=O)O)cc3)cc2)c1 (stereo not drawn) | 5.2 µM | – | –
7 | CN(C)CCCC(O)(c1ccccc1)c1cccc(CCOc2ccc(-c3ccc(C(=O)O)cc3)cc2)c1 (stereo not drawn) | 3.4 µM | – | –
8 | CN(C)CCCC(O)(c1ccccc1)c1cccc(OCCOc2ccc(-c3ccc(C(=O)O)cc3)cc2)c1 (stereo not drawn) | > 1 µM | – | –
9 | CN(C)CCCC(O)(c1ccccc1)c1ccc(OCCc2ccc(-c3ccc(C(=O)O)cc3)cc2)cc1 (stereo not drawn) | 12 µM | – | –
10 | CN(C)CCCC(O)(c1ccccc1)c1cccc(OCCc2ccc(-c3ccc(C(=O)O)cc3)cc2)c1 (stereo not drawn) | 4.6 µM | – | –
11 | CN(C)CCCC(O)(c1ccccc1)c1cccc(OCc2cccc(-c3ccc(C(=O)O)cc3)c2)c1 (stereo not drawn) | 20 µM | – | –
12 | CCc1cccc(-c2ccc(C(=O)O)cc2)c1 | – | 100 µM | Kd [3]: 20 µM
13 | CN(C)CCCC(O)(c1ccccc1)c1ccc(OCc2ccc(-c3ccc(C(=O)O)cc3)cc2)cc1 (stereo not drawn) | 83 µM | – | –
14 | CN(C)CCC[C@@](O)(c1ccccc1)c1ccc(Cl)cc1 | – | 80 µM | Kd (Bcl-2-like protein 1): 500 µM
15 | CC(C)(C)c1ccc(C(O)(CCN2CCCC2)c2ccc(Cl)c(CCOc3ccc(-c4ccc(C(=O)O)cc4)cc3)c2)cc1 (stereo not drawn) | 0.04 µM | – | Selectivity ratio [4]: 1000
16 | CC(O)(c1ccc(Cl)cc1)c1ccc(Cl)c(CCOc2ccc(-c3ccc(C(=O)O)cc3)cc2)c1 (stereo not drawn) | 0.46 µM | – | –
17 | CN(C)CCCC(O)(c1ccccc1)c1ccc(OCCc2cccc(-c3ccc(C(=O)O)cc3)c2)cc1 (stereo not drawn) | 8 µM | – | –
18 | CN(C)CCCC(O)(c1ccccc1)c1ccc(OCCOc2ccc(-c3ccc(C(=O)O)cc3)cc2)cc1 (stereo not drawn) | > 1 µM | – | –
19 | NC[C@](O)(c1ccccc1)c1ccc(F)cc1Cl | – | 250 µM | –
20 | O=C(O)c1ccc(-c2ccc(F)cc2)cc1 | – | 400 µM | Kd [3]: 430 µM
21 | CCc1ccc(-c2ccc(C(=O)O)cc2)cc1 | – | 300 µM | Kd [3]: > 1000 µM
22 | CN1CCN(C(c2ccccc2)c2ccc(Cl)cc2)CC1 (stereo not drawn) [CHLORCYCLIZINE] | – | 60 µM | Kd (Bcl-2-like protein 1): 700 µM
23 | CN(C)CCCC(O)(c1ccc(Cl)cc1)c1ccc(Cl)cc1 | – | 20 µM | Selectivity ratio [4]: 20; Kd (Bcl-2-like protein 1): 450 µM
24 | O=C(O)c1ccc(-c2ccc(OCCc3cc(C(O)(CCN4CCOCC4)c4ccc(Br)cc4)ccc3Cl)cc2)cc1 (stereo not drawn) | 0.2 µM | – | –
